“Also recorded” adds a separate entry of the source. Like-named read-outs stand apart in the source and are kept apart here.
How the values were obtained:
Type in all cases: cell-based
CHK1 = assay: siRNA validation of target silencing (qRTPCR); conditions: previous studies
Procedure: These experiments were performed using the siRNAs shown below. The degree of gene target silencing was measured in cells transfected with the siRNAs at (50 nM) and the degree of gene silencing was measured using qRTPCR (using Beta-actin as a control housekeeping gene for normalization of the data).

CFPAC cells = assay: Screen of siRNA sequences designed against CHK1: % viable cells 72 h after transfection, CFPAC
Procedure: (§1) The percentage of viable cells 72 h after transfection of the siRNA sequences into cells in culture is shown (top panel—BxPC3 cells; lower panel—CFPAC cells). 100% viability is defined as that in the presence of a NON-silencing control siRNA (NS). CHK1_AZ (AZ) was tested as a comparator. CD=Cell Death siRNAs—known to produce maximal killing of many cell types when transfected into cells.

BxPC3 cells [1] = assay: Screen of siRNA sequences designed against CHK1: % viable cells 72 h after transfection, BxPC3
Procedure: as §1

BxPC3 cells [2] = assay: BxPC3 cell viability 96 h after transfection/treatment, Cell Titer Glo (Examples 2 and 3); conditions: for IC50: read-out: IC50, inhibition of cell viability; for inhibition in cell viability at 0.1 nM: BxPC3, 0.1 nM, GEM-modified siRNAs
Procedure: (§2) Pancreatic cancer BxPC3 cells were seeded at 1000 cells/ml and grown as monolayers in 384 well plates. The cells were transfected with the siRNAs indicated against CHK1 or Rad17 using Lipofectamine (ThermoFisher) or were treated with gemcitabine at the concentrations indicated on the X axis. After a 96 h incubation at 37° C. with 5% CO2, cell viability was determined using Cell Titer Glo (Perkin Elmer) by monitoring the luminescence signal produced by the reagent in a Perkin Elmer Envision plate reader equipped with Ultrasensitive luminescence detection optics. From the figure we can see that gemcitabine (GEM) produces a dose-dependent inhibition of cell viability with an IC50 of ~6 nM and maximal efficacy of >80% cell killing. A 25mer blunt ended siRNA against RAD17 produced a dose dependent inhibition in cell viability with a maximum efficacy at only 60% reduction in cell viability and an IC50 of ~5 nM. […] The IC50 for the latter siRNA was similar to that for the Azorsa sequence (~0.3 nM).
SiRNAs were synthesized with gemcitabine nucleotide amidites added at the 3′ end of each of the Sense strands for the siRNA sequences indicated. SiRNAs were transfected into the cells and incubated as detailed in FIG. 1. Maximal efficacy of all sequences was now improved to >95% inhibition of cell viability at concentrations above 10 nM. […] The gemcitabine nucleotides was examined to see if it could replace the Cytidine nucleotides within the siRNA sequence. […] FIGS. 12a-12d show the effect of adding 2 gemcitabine nucleotides at the 3′ end of the Sense strand of each siRNA on potency and efficacy.

MiaPaca-2 = MiaPaca-2 cell viability, 96 h exposure (Examples 8 and 9); conditions: for maximal inhibition of cell viability: 96 h
Procedure: as §2
Using gemcitabine or the same unmodified siRNAs and exposure time (96 h) as used against BxPC3 cells (FIG. 1), we studied the effect on another pancreatic cancer cell line—MiaPaca-2.

[3] = system: BxPC3 pancreatic cancer cell; assay: cells; conditions: for IC50: BxPC3, 120 h exposure, read-out: IC50, cell viability
Procedure: The siRNA sequences shown in Table 2 were tested for efficacy and potency against BxPC3 pancreatic cancer cell viability after 120 h exposure.

BxPC3 cells [4] = assay: BxPC3 cell viability after 72 hrs treatment, CTG2 reagent (Example 1); conditions: Homo sapiens, BXPC-3, BxPC3, 72 h
Procedure: BxPC3 cells were seeded in two 384-well plates at 500 cells/well. On the next day cells were treated with various concentrations of CID2A, CID2S, CID4 siRNAs (formulated with Lipofectamine RNAiMAX) or gemcitabine (0.1-1000 nM) for 72 hrs. After incubation at 37° C. for 72 hrs, the number of viable cells was assessed using CTG2 reagent. Non-treated cells were set as 100%.

BxPC3 cells [5] = assay: BxPC3 cell viability after 120 h exposure, Cell Titer Glo (Example 4, polyGEM constructs)
Procedure: BxPC3 cells seeded in 384 well plates at 1000 cells/well were transfected with siRNA constructs or exposed to gemcitabine at the concentrations indicated in the figure. The samples tested were gemcitabine alone (GEM), the unmodified 19mer siRNA against CHK1 (CHK-AZ) and the same sequences of the siRNA but with either 2 (poly-2), 4 (poly-4) or 6 (poly-6) gemcitabine nucleotides added at the 3′ end of the Sense strand prior to annealing with the same antisense strand. After 120 h exposure to the various agents, the cell viability was determined by addition of Cell Titer Glo (PE), plates were shaken for 10-20 mins and then luminescence signal correlating with cell viability was determined in a PE Envision plate reader.
It was reasoned that, since such an improvement in efficacy against pancreatic cancer cell viability was obtained when adding 2 GEM nucleotides onto the SS of an siRNA, then adding additional GEMs would further improve the efficacy and/or potency of the siRNAs. To this end the unmodified 19mer siRNA (CHK-AZ) was compared with the same sequence where 2Gems were added at the 3′ end of the SS (poly-2), 4GEMs were added (poly-4) or 6 GEMs were added (poly-6). These sequences were compared with gemcitabine alone (GEM). The experiment was performed by transfection of the siRNAs in BxPC3 cells as for FIG. 1 but the exposure time prior to measurement of cell viability was 120 h. […]

CHK_4: siRNA designed against CHK1, sense strand CCTGTGGAATAGTACTTACTGCAAT (SEQ ID NO: 9); same sequence as SLP49-1 (antisense strand not cited, further chemistry not given here)
silencing of CHK1 gene (CHK1): better silencing than the Azorsa sequence | effect on CFPAC cell viability (CFPAC cells): very pronounced effect on cell viability | potency on BxPC3 cell viability (BxPC3 cells [1]): most potent effect; also recorded: greater potency than CHK-AZ | % viable BxPC3 cells at 72 h (BxPC3 cells [1]; 100% = non-silencing control siRNA): 24% | potency on BxPC3 cell viability (BxPC3 cells [1]; listed as #4): #4 sequence CCTGTGGAATAGTACTTACTGCAAT (SEQ ID NO: 9) seemed to be the best.

SLP49-3: Unlabeled 25mer blunt ended siRNA against RAD17, sense CCAACAAUUAUGAUGAAAUUUCUUA (SEQ ID NO: 23) (antisense UAAGAAAUUUCAUCAUAAUUGUUGG; further chemistry not given here)
maximal efficacy (reduction/inhibition of cell viability, cell killing) (BxPC3 cells [2]; BxPC3, 96 h): 60% | maximal efficacy (reduction/inhibition of cell viability, cell killing) (BxPC3 cells [2]; BxPC3, 96 h, listed as RAD17 siRNA): ~ 60% | IC50 (BxPC3 cells [2]; BxPC3, 96 h): ~5 nM | maximal inhibition of cell viability (MiaPaca-2; listed as RAD17 siRNA): ~ 30% | maximal inhibition of cell viability (MiaPaca-2; listed as unmodified 25mer siRNA targeting RAD17): ~ 25% | maximal efficacy, inhibition of cell viability [3]: 60% | IC50 [3]: ~4 nM

Nc1ccn([C@@H]2O[C@H](CO)[C@@H](O)C2(F)F)c(=O)n1 [gemcitabine, 2′,2′-difluoro 2′-deoxycytidine, reference compound]
viability at 0.05 µM (BxPC3 cells [4]; 50 nM): 26% | IC50 (BxPC3 cells [4]; no Lipofectamine, read-out: IC50, reduction in cell viability): ~7 nM | maximal efficacy (reduction/inhibition of cell viability, cell killing) (BxPC3 cells [2]; BxPC3, 96 h): > 80% | IC50 (BxPC3 cells [2]; Homo sapiens, BXPC-3, BxPC3, 96 h): ~6 nM | inhibition at 0.1 µM (MiaPaca-2; Homo sapiens, MIA PaCa-2, 100 nM, read-out: maximal inhibition at 100 nM): 90% | reduction in cell viability at concentrations above 50 nM (BxPC3 cells [5]; BxPC3, 120 h, >50 nM): 100% | IC50 (BxPC3 cells [5]; Homo sapiens, BXPC-3, BxPC3, 120 h exposure): 3 nM | IC50 ([3]; Homo sapiens, BXPC-3): ~5 nM | maximal efficacy, inhibition of cell viability ([3]; human, 120 h, 100 nM): ~ 85%

SLP49-6: CHK1 siRNA, SS shortened by first 2 bases, containing 2 Gems (SEQ ID NO: 21) (sense UGUGGAAUAGUACUUACUGCAAUCC; antisense AUUGCAGUAAGUACUAUUCCACAGG; sense strand contains two gemcitabines, positions not given here, further chemistry not given here)
efficacy (inhibition of cell viability / cell killing) at 30 nM [3]: 83-97% | IC50 [3]: ~3 nM

SLP49-1: Unmodified 25mer blunt ended CHK1 siRNA, sense CCUGUGGAAUAGUACUUACUGCAAU (SEQ ID NO: 18) (antisense AUUGCAGUAAGUACUAUUCCACAGG; unmodified RNA)
inhibition of cell viability at 100 nM (BxPC3 cells [2]; BxPC3, 96 h, 100 nM): ~ 90% | IC50 (BxPC3 cells [2]; BxPC3, 96 h): ~0.3 nM | maximal inhibition of cell viability (MiaPaca-2; listed as 25mer blunt ended siRNA designed against CHK1): ~ 80% | maximal inhibition of cell viability (MiaPaca-2; listed as Chk1_de): 80% | Efficacy at 100 nM ([3]; BxPC3, 120 h, 100 nM): 90% | IC50 [3]: 0.25 nM

SLP49-2: 25mer CHK1 siRNA with 2 GEMs attached at the 3′ end of the Sense Strand (SEQ ID NO: 19) (sense CCUGUGGAAUAGUACUUACUGCAAUCC; antisense AUUGCAGUAAGUACUAUUCCACAGG; 25mer siRNA, two gemcitabine nucleotides added at sense strand 3' end, further chemistry not given here)
inhibition in cell viability at 0.1 nM (BxPC3 cells [2]): 31% | maximal inhibition at 10 nM (MiaPaca-2; 10 nM): ~ 100% | efficacy (inhibition of cell viability / cell killing) at 30 nM [3]: ~ 100%

SLP49-4: RAD17 25mer siRNA with 2 additional GEMs attached at the 3′ end of the SS (SEQ ID NO: 24) (sense CCAACAAUUAUGAUGAAAUUUCUUACC; antisense UAAGAAAUUUCAUCAUAAUUGUUGG; 25mer siRNA, two gemcitabine nucleotides added at sense strand 3' end, further chemistry not given here)
inhibition in cell viability at 0.1 nM (BxPC3 cells [2]): no effect on cell viability | inhibition at 30 nM (MiaPaca-2; 30 nM): 93% | efficacy (inhibition of cell viability / cell killing) at 30 nM [3]: 100% | IC50 [3]: ~4 nM

SLP49-5: CHK1 siRNA, SS shortened by first 2 bases, 3 GEMs in place of Cs (SEQ ID NO: 20) (sense UGUGGAAUAGUACUUACUGCAAU; antisense AUUGCAGUAAGUACUAUUCCACAGG; three gemcitabines replace cytidines in sense strand, positions not given here)
efficacy (inhibition of cell viability / cell killing) at 30 nM [3]: 83-97% | IC50 [3]: ~3 nM

From patent publication US12685775B2, “Oligonucleotides with nucleoside analogs” (Sirnaomics, Inc., priority 2019, dated 2026)
